Measured values reported in US12213963B2, “Topical formulation of disease-modifying antirheumatic drug (DMARDs) for the treatment of rheumatoid arthritis, melanoma, squamous cell carcinoma, atopic dermatitis, and psoriasis” (priority 2022, dated 2025).

Assay: Solubility of leflunomide in oils, surfactants and co-surfactants
Assay type: physicochemical
Method: Solubility of leflunomide was investigated in various oils, surfactants and co-surfactants. The selected excipients showing good solubility were further screened using turbidimetric method to check the emulsification efficiency of the system. Water titration method was used to select combination of oil, surfactant and co surfactant which provided clear systems with water. Briefly, the drug was dissolved in the oil by vortexing. Surfactant and co-surfactants were added to the oil phase and further titrated with water to check the ease of emulsification. The globule size of these systems was determined. Capryol® 90 and Capmul® PG2L were selected as the oil component. The solubility of the drug was highest in these oils and adequate to achieve the required drug loading. […] Out of the various gelling agents screened, Carbopol® 974P was selected because it formed uniform gel with good texture and consistency.

Cc1oncc1C(=O)Nc1ccc(C(F)(F)F)cc1 [leflunomide]
drug solubility in co-surfactant PEG 400: higher drug solubility | drug solubility in surfactants Tween 20 and Kolliphor RH 40: high drug solubility | solubility of the drug in oils Capryol 90 and Capmul PG2L (compared with other oils screened): highest
